The data set can be described thus: in vitro. Conditions: human, hela cells, % viability.
The viability is a read-out of living cells in per cent, often relative to untreated cells. With `COc1ccc(C)cc1CC(=O)N(C)CCN1CCCCC1` [CBK282750], the viability at 28.5 h, 10 µM is 88.7%. Take `CCC(CN1CCCC1)NC(=O)Cc1c(C)[nH]c2ccc(F)cc12` (centres unmarked) [CBK282751]: the viability at 28.5 h, 10 µM is 76.4%. `CCC(CN1CCCC1)NC(=O)Cc1ccc(OC)c(C)c1` (centres unmarked) [CBK282752]: the viability at 28.5 h, 10 µM came to 92.9%. For `CCn1cc(CN2C3CCC2CC(O)(c2cccc(F)c2)C3)c(C)n1` (centres unmarked) [CBK282755], the viability at 28.5 h, 10 µM was 80.9%. For the molecule `CCn1cc(S(=O)(=O)N2CCCC3(CCCCC3)C2)c(C)n1` [CBK282756], the viability at 28.5 h, 10 µM worked out at 83.9%.

As for `CCC(CN1CCCC1)NC(=O)C1CC(=O)Nc2ccccc21` (centres unmarked) [CBK282757], the viability at 28.5 h, 10 µM was found to be 90.6%.

For the molecule `CCC(CN1CCCC1)NC(=O)C1(c2ccccc2)CCOCC1` (centres unmarked) [CBK282758], the viability at 28.5 h, 10 µM was found to be 96.6%. For the molecule `CCC(CN1CCCC1)NC(=O)Cc1cc(C)ccc1OC` (centres unmarked) [CBK282759], the viability at 28.5 h, 10 µM came to 83.2%. As for `O=S(=O)(NCC1(c2ccccc2)CCCC1)c1cccnc1` [CBK282762], the viability at 28.5 h, 10 µM was 102%.

On to `COC(=O)Cn1c(-c2ccc(F)cc2)cc2cccnc21` [CBK282763], for which the viability at 28.5 h, 10 µM is 91.5%. Regarding `NC[C@H]1CC[C@H](C(=O)NCC2CCCN(Cc3ccccc3)C2)CC1` (some centres unmarked) [CBK282764], the viability at 28.5 h, 10 µM is 89.6%.

Take `CCn1cc(NC(=O)CCn2c(C(F)F)cc3cccnc32)cn1` [CBK282769]: the viability at 28.5 h, 10 µM amounted to 97.1%.

Regarding `CN(C)CCN(Cc1cccnc1)C(=O)C1(c2ccccc2F)CC1` [CBK282771], the viability at 28.5 h, 10 µM was 97%. For `O=C(CC1CCS(=O)(=O)C1)NC1(c2ccc(Cl)cc2)CC1` (centres unmarked) [CBK282773] the value was 97.6%; for `CCC(CN1CCOCC1)NC(=O)Cc1c(C)[nH]c2ccc(F)cc12` (centres unmarked) [CBK282774], 92.6%; for `O=C(NC1(c2ccccc2)CC1)c1cc(-n2cnnc2)ccc1Cl` [CBK282777], 97.2%. Regarding `O=C(NC1(c2ccccc2)CC1)c1ccc(-n2cnnc2)cc1` [CBK282778], the viability at 28.5 h, 10 µM turned out to be 111%. The result for `O=C(NC1(c2ccccc2)CC1)c1cccc(-n2cnnc2)c1` [CBK282779] reads 99.1%. Consider `OC1(c2cccnc2)CCN(CC2(c3ccc(Cl)cc3)CC2)CC1` [CBK282780], for which the viability at 28.5 h, 10 µM came out at 93%. For the molecule `CN1CCC(N(CCO)CC2(c3ccc(Cl)cc3)CC2)CC1` [CBK282781], the viability at 28.5 h, 10 µM stood at 96.6%.

Turning to `CN(C)CCN1CCN(CC2(c3ccc(Cl)cc3)CC2)CC1` [CBK282783], the viability at 28.5 h, 10 µM turned out to be 103%.

As for `CCC(CN1CCN(C)CC1)NC(=O)Cc1ccc2c(c1)CCC2` (centres unmarked) [CBK282784], the viability at 28.5 h, 10 µM was found to be 92.2%. On to `CCC(CN1CCN(C)CC1)NC(=O)C1(c2ccc(F)cc2)CC1` (centres unmarked) [CBK282785], for which the viability at 28.5 h, 10 µM worked out at 104%. For the molecule `CCC(CN1CCN(C)CC1)NC(=O)C1(c2cccc(F)c2)CC1` (centres unmarked) [CBK282786], the viability at 28.5 h, 10 µM was found to be 110%. The result for `CCC(CN1CCOCC1)NC(=O)Cc1coc2cc(C)ccc12` (centres unmarked) [CBK282791] reads 93.3%; that for `Cn1cc(CN2CCN(CC3(c4ccccc4)CC3)CC2)cn1` [CBK282794], 109%. Turning to `OC1(c2ccccc2)CCN(Cc2ccccc2-n2cccn2)C1` (centres unmarked) [CBK282795], the viability at 28.5 h, 10 µM turned out to be 96.5%. `Cc1nn(C)cc1S(=O)(=O)N1CCc2cc(Cl)ccc21` [CBK282802]: the viability at 28.5 h, 10 µM is 107%. Consider `NC(=O)Cn1cc(CN2CCC(c3ccccc3)C2)c2ccccc21` (centres unmarked) [CBK282803], for which the viability at 28.5 h, 10 µM was 92.3%. The result for `COCC(=O)NC(Cc1ccsc1)c1nc(C)cs1` (centres unmarked) [CBK282804] reads 99.5%; that for `Cc1nn(C)cc1S(=O)(=O)Nc1ccc2c(ccn2C)c1` [CBK282806], 77.4%; that for `O=C1CCCN1c1ccc(CN2CCC(O)(c3ccccc3)C2)cc1` (centres unmarked) [CBK282808], 98.4%.

Take `CCC(CN1CCOCC1)NC(=O)Cc1coc2cc(C)c(C)cc12` (centres unmarked) [CBK282811]: the viability at 28.5 h, 10 µM is 91%. For `Cc1ccc2oc(CN3CCC(O)(c4cccnc4)CC3)c(C)c2c1` [CBK282816] the value was 94.7%; for `Cc1nc(CC(=O)NC(Cc2ccsc2)c2nccs2)cs1` (centres unmarked) [CBK282823], 87.5%. For `O=C(NC(Cc1ccsc1)c1nccs1)C1CCOCC1` (centres unmarked) [CBK282824] the value was 96.4%. The result for `C=C(C)CN1CCN(Cc2c[nH]nc2C(C)(C)C)CC1` [CBK282827] reads 92.6%. As to `C=C(C)CN1CCN(Cc2cnn(C3CCCCC3)c2)CC1` [CBK282828], the viability at 28.5 h, 10 µM was determined as 98.9%.

In the case of `Cc1ccc(O)c(CN(CCCn2ccnc2)CC2CC=CCC2)c1` (centres unmarked) [CBK282829], the viability at 28.5 h, 10 µM came to 86.7%. For `COCCC(=O)NC(Cc1ccsc1)c1nc(C)cs1` (centres unmarked) [CBK282830] the value was 85.1%; for `Cc1csc(C(Cc2ccsc2)NC(=O)Cn2cccn2)n1` (centres unmarked) [CBK282831], 89.7%; for `O=C(c1ccccn1)N1CCCC(c2cc3ccccc3cn2)C1` (centres unmarked) [CBK282832], 96.3%. Regarding `COc1ccc(C2(NCc3cn(CC(N)=O)c4ccccc34)CC2)cc1` [CBK282833], the viability at 28.5 h, 10 µM worked out at 107%.

For `COc1ccc(C2(NCc3c(C)nc4sccn34)CC2)cc1` [CBK282835], the viability at 28.5 h, 10 µM was determined as 95.2%. With `CCn1cc(S(=O)(=O)NC2(c3ccc(F)cc3)CC2)c(C)n1` [CBK282837], the viability at 28.5 h, 10 µM stood at 92.4%.

As to `CN1Cc2ccccc2CC1C(=O)N1CCCC12CC=CC2` (centres unmarked) [CBK282838], the viability at 28.5 h, 10 µM stood at 81.3%. For `O=C1CCCN1c1ccc(S(=O)(=O)NCC2CC3CCC2C3)cc1` (centres unmarked) [CBK282841] the value was 106%; for `C=CCn1cc(CN(CCN(C)C)Cc2ccc(C)o2)c(C)n1` [CBK282844], 101%; for `CCn1cc(CN(CCN(C)C)Cc2ccc(C)o2)c(C)n1` [CBK282845], 79.6%. Take `C=CCn1ncc(CN(CCN(C)C)Cc2ccc(C)o2)c1C` [CBK282846]: the viability at 28.5 h, 10 µM was 81.3%.

As for `CCN(CC)C(=O)Cn1ncc2c3oc(C)cc3n(C(C)C)c2c1=O` [CBK282848], the viability at 28.5 h, 10 µM was determined as 90.7%. For `CN1C(=O)c2ccccc2C(O)C2(C)CN(Cc3ccccc3)CC12` (centres unmarked) [CBK282849] the value was 108%; for `CN(C)C(=O)CN1C(=O)[C@H]2CCCN2C(=O)c2ccccc21` [CBK282854], 91.2%; for `O=C1[C@@H]2CCCN2C(=O)c2ccccc2N1CCN1CCCC1` [CBK282857], 96.3%. Consider `Cc1ccc(C)c2nc3c(cc12)CN(C1CC1)C(=O)CO3` [CBK282858], for which the viability at 28.5 h, 10 µM worked out at 94.8%. In the case of `O=c1c2snc(-c3ccc(F)cc3)c2ncn1C1CC1` [CBK282859], the viability at 28.5 h, 10 µM is 76.9%. The result for `COc1ccc(NC(=O)CCn2ccc3ccncc32)c(C)c1` [CBK282860] reads 109%; that for `O=C1Nc2ccccc2S(=O)(=O)N2CCCC12` (centres unmarked) [CBK282864], 112%.

For `CC1CCc2noc(C3CCCN(C(=O)c4ccco4)C3)c2C1` (centres unmarked) [CBK282865], the viability at 28.5 h, 10 µM is 110%.

On to `COCC(=O)NC1CC(C)(C)Cc2c1cnn2-c1ccc(C)cc1` (centres unmarked) [CBK282866], for which the viability at 28.5 h, 10 µM is 118%. On to `O=C(Cn1nc(C(F)(F)F)c2cccn2c1=O)NC1CCCC1` [CBK282867], for which the viability at 28.5 h, 10 µM came out at 90.2%.

In the case of `CCCN(CC1CC1)C(=O)Cn1c([C@@H]2CCCO2)cc2cccnc21` [CBK282871], the viability at 28.5 h, 10 µM was found to be 94.4%. For `C=CCNC(=O)C1CCCN(c2nc3ccccc3n2C)C1` (centres unmarked) [CBK282872], the viability at 28.5 h, 10 µM came out at 105%.

For `O=C(Cc1ccc(F)cc1)N1CCOC(Cn2ccnc2)C1` (centres unmarked) [CBK282875], the viability at 28.5 h, 10 µM worked out at 91%.

On to `Cc1cc2ccccc2n2c(=O)n(CCNC(=O)C(C)C)nc12` [CBK282876], for which the viability at 28.5 h, 10 µM turned out to be 84.2%. Take `Cc1cc(-c2cc(=O)n(CCc3ccccc3)nc2-c2ccco2)on1` [CBK282879]: the viability at 28.5 h, 10 µM worked out at 105%. Turning to `Nc1cc(-c2cccs2)nn(Cc2ccccc2Cl)c1=O` [CBK282884], the viability at 28.5 h, 10 µM was 91%.

Take `CC(C)(C)C(=O)NCCn1c(=O)oc2ccccc21` [CBK282885]: the viability at 28.5 h, 10 µM turned out to be 96.4%.

For `Cc1cnc2c(c1)cc(C(F)(F)F)n2CC(=O)NC1CC1` [CBK282887], the viability at 28.5 h, 10 µM amounted to 105%.

Take `O=C(C1CC1)N1CC2CCCC(C1)C2(O)c1cccnc1F` (centres unmarked) [CBK282889]: the viability at 28.5 h, 10 µM stood at 99.6%. In the case of `CC(C)C(=O)N1CCCC(n2c(=O)oc3ccc(Cl)cc32)C1` (centres unmarked) [CBK282890], the viability at 28.5 h, 10 µM is 95.3%.

For `O=C(c1ccco1)N1CCc2cc(-c3cn4c(n3)CCCC4)ccc21` [CBK282893], the viability at 28.5 h, 10 µM stood at 98.8%. As for `COc1ccccc1Cn1ncc2c1CCCC2NC(=O)C1CCC1` (centres unmarked) [CBK282895], the viability at 28.5 h, 10 µM worked out at 110%.

As to `Cc1ccc(CNCc2cc3c(C)nn(-c4ccccc4)c3[nH]c2=O)o1` [CBK282896], the viability at 28.5 h, 10 µM worked out at 90.8%.

In the case of `Cc1nn(-c2ccccc2)c2[nH]c(=O)c(CNC3CCC3)cc12` [CBK282897], the viability at 28.5 h, 10 µM is 103%. Turning to `Cc1nn(-c2ccccc2)c2[nH]c(=O)c(CNC(C)C)cc12` [CBK282899], the viability at 28.5 h, 10 µM turned out to be 93.1%. `CC1CN(Cc2c(C(C)C)[nH]c3ncccc23)CC(C)O1` (centres unmarked) [CBK282900]: the viability at 28.5 h, 10 µM is 93.7%. In the case of `O=C1CC[C@H](NC(=O)c2cccs2)C(c2cccnc2)N1` (some centres unmarked) [CBK282901], the viability at 28.5 h, 10 µM was 98.5%. The result for `CNC(=O)[C@@H]1CN(Cc2ccccc2)C[C@H]1C(=O)c1ccc(F)cc1` [CBK282902] reads 110%.

Take `OC1(c2ccccn2)CCN(CCc2ccccc2)CC1` [CBK282904]: the viability at 28.5 h, 10 µM came to 87.2%. Turning to `O=C(c1cccnc1)N1CCN(CC2(c3ccccc3)CC2)CC1` [CBK282906], the viability at 28.5 h, 10 µM turned out to be 94.5%.

As for `O=C1CC[C@@H](NCc2cccc(O)c2)[C@H](c2cc(F)cc(F)c2)N1` [CBK282909], the viability at 28.5 h, 10 µM amounted to 98%.

As to `O=C1CC[C@@H](NCc2ccsc2)[C@H](c2cc(F)cc(F)c2)N1` [CBK282910], the viability at 28.5 h, 10 µM came out at 102%.
